The test concerns HCT116 colorectal cancer cells. The experiment in a line: Cisplatin sensitization assay (96 h MTS cell viability).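 Further: compound concentration needed to lower the IC50 of Cisplatin alone by a set fold.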 Format: cell-based. To be noted: Cisplatin sensitization value. The protocol:
Compounds can be screened for their ability to sensitize HCT116 colorectal cancer cells to Cisplatin using a 96 h cell viability (MTS) assay. […] Compounds and Cisplatin are then both added simultaneously to the cell media in 2-fold serial dilutions from a top final concentration of 10 μM as a full matrix of concentrations in a final cell volume of 200 μl, and the cells are then incubated at 37° C. in 5% CO2. After 96 h, 40 μl of MTS reagent (Promega G358a) is added to each well and the cells are incubated for 1 h at 37° C. in 5% CO2.
Compounds with a Cisplatin sensitization value of <0.02 μM are marked with “+++.” Compounds with a Cisplatin sensitization value >0.02 μM but <0.2 μM are marked with “++.” Compounds with a Cisplatin sensitization value >0.2 μM but <5 μM are marked with “+.”

`Nc1nn2cc(Cl)cnc2c1C(=O)Nc1cnccc1N1CCC(N2CC[S+]([O-])CC2)CC1` [I-N-100, 2-amino-6-chloro-N-(4-(4-(1-oxidothiomorpholino)piperidin-1-yl)pyridin-3-yl)pyrazolo[1,5-a]pyrimidine-3-carboxamide]: the “Cisplatin Sensitization Assay” value is “++ (Compounds with a Cisplatin sensitization value >0.02 μM but <0.2 μM are marked with “++.”)”.

Regarding `Cn1nncc1-c1ccncc1NC(=O)c1c(N)nn2cc(F)cnc12` [I-C-72, 2-amino-6-fluoro-N-(4-(1-methyl-1H-1,2,3-triazol-5-yl)pyridin-3-yl)pyrazolo[1,5-a]pyrimidine-3-carboxamide], the “Cisplatin Sensitization Assay” value is reported as “+++ (Compounds with a Cisplatin sensitization value of <0.02 μM are marked with “+++.”)”.

For `Nc1nn2cc(F)cnc2c1C(=O)Nc1cnccc1N1CCN2C(=O)COCC2C1` (stereo not drawn) [I-N-136, 2-amino-6-fluoro-N-(4-(4-oxohexahydropyrazino[2,1-c][1,4]oxazin-8(1H)-yl)pyridin-3-yl)pyrazolo[1,5-a]pyrimidine-3-carboxamide], the “Cisplatin Sensitization Assay” value is “++ (Compounds with a Cisplatin sensitization value >0.02 μM but <0.2 μM are marked with “++.”)”.

As to `COC1(C)CN(C(=O)C2CCN(c3c(F)cncc3NC(=O)c3c(N)nn4cc(F)cnc34)CC2)C1` [I-G-75, 2-amino-6-fluoro-N-(5-fluoro-4-(4-(3-methoxy-3-methylazetidine-1-carbonyl)piperidin-1-yl)pyridin-3-yl)pyrazolo[1,5-a]pyrimidine-3-carboxamide], the “Cisplatin Sensitization Assay” value is listed as “+++ (Compounds with a Cisplatin sensitization value of <0.02 μM are marked with “+++.”)”.

On to `Nc1nn2cc(F)cnc2c1C(=O)Nc1cnccc1-c1ccccn1` [I-C-60, N-([2,4′-bipyridin]-3′-yl)-2-amino-6-fluoropyrazolo[1,5-a]pyrimidine-3-carboxamide], for which the “Cisplatin Sensitization Assay” value is recorded as “++ (Compounds with a Cisplatin sensitization value >0.02 μM but <0.2 μM are marked with “++.”)”.

Take `Nc1nn2cc(F)cnc2c1C(=O)Nc1cncc(F)c1N1CCC(c2nccs2)CC1` [I-N-184, 2-amino-6-fluoro-N-(5-fluoro-4-(4-(thiazol-2-yl)piperidin-1-yl)pyridin-3-yl)pyrazolo[1,5-a]pyrimidine-3-carboxamide]: the “Cisplatin Sensitization Assay” value is “++ (Compounds with a Cisplatin sensitization value >0.02 μM but <0.2 μM are marked with “++.”)”.

For `C[C@H]1CN(C(=O)C2CCN(c3c(F)cncc3NC(=O)c3c(N)nn4cc(F)cnc34)CC2)CCN1` [I-G-61, (S)-2-amino-6-fluoro-N-(5-fluoro-4-(4-(3-methylpiperazine-1-carbonyl)piperidin-1-yl)pyridin-3-yl)pyrazolo[1,5-a]pyrimidine-3-carboxamide], the “Cisplatin Sensitization Assay” value is listed as “+++ (Compounds with a Cisplatin sensitization value of <0.02 μM are marked with “+++.”)”.

Take `Nc1nn2cc(F)cnc2c1C(=O)Nc1cncc(F)c1N1CCC(C(=O)N2CCC(N3CCCC3)CC2)CC1` [I-G-59, 2-amino-6-fluoro-N-(5-fluoro-4-(4-(4-(pyrrolidin-1-yl)piperidine-1-carbonyl)piperidin-1-yl)pyridin-3-yl)pyrazolo[1,5-a]pyrimidine-3-carboxamide]: the “Cisplatin Sensitization Assay” value is “+++ (Compounds with a Cisplatin sensitization value of <0.02 μM are marked with “+++.”)”.

For the molecule `Nc1nn2cc(F)cnc2c1C(=O)Nc1cnccc1N1CCS(=O)(=O)CC1` [I-N-210, 2-amino-N-(4-(1,1-dioxidothiomorpholino)pyridin-3-yl)-6-fluoropyrazolo[1,5-a]pyrimidine-3-carboxamide], the “Cisplatin Sensitization Assay” value is on record as “+++ (Compounds with a Cisplatin sensitization value of <0.02 μM are marked with “+++.”)”.

As for `CN1CCC(C(=O)N2CCN(c3c(F)cncc3NC(=O)c3c(N)nn4cc(F)cnc34)CC2)C1` (stereo not drawn) [I-N-156, 2-amino-6-fluoro-N-(5-fluoro-4-(4-(1-methylpyrrolidine-3-carbonyl)piperazin-1-yl)pyridin-3-yl)pyrazolo[1,5-a]pyrimidine-3-carboxamide], the “Cisplatin Sensitization Assay” value is listed as “+++ (Compounds with a Cisplatin sensitization value of <0.02 μM are marked with “+++.”)”.

Take `CN(C)CCOc1cc(Cl)ncc1NC(=O)c1c(N)nn2cc(Cl)cnc12` [I-O-68, 2-amino-6-chloro-N-(6-chloro-4-(2-(dimethylamino)ethoxy)pyridin-3-yl)pyrazolo[1,5-a]pyrimidine-3-carboxamide]: the “Cisplatin Sensitization Assay” value is “++ (Compounds with a Cisplatin sensitization value >0.02 μM but <0.2 μM are marked with “++.”)”.

Regarding `CS(=O)(=O)c1ccc(-c2ccncc2NC(=O)c2c(N)nn3cc(F)cnc23)cc1` [I-C-61, 2-amino-6-fluoro-N-(4-(4-(methylsulfonyl)phenyl)pyridin-3-yl)pyrazolo[1,5-a]pyrimidine-3-carboxamide], the “Cisplatin Sensitization Assay” value was “+++ (Compounds with a Cisplatin sensitization value of <0.02 μM are marked with “+++.”)”.

Turning to `CN1CCN(c2ccncc2NC(=O)c2c(N)nn3cc(F)cnc23)CC12CCOCC2` [I-N-133, 2-amino-6-fluoro-N-(4-(1-methyl-9-oxa-1,4-diazaspiro[5.5]undecan-4-yl)pyridin-3-yl)pyrazolo[1,5-a]pyrimidine-3-carboxamide], the “Cisplatin Sensitization Assay” value is recorded as “++ (Compounds with a Cisplatin sensitization value >0.02 μM but <0.2 μM are marked with “++.”)”.

Take `Nc1nn2cc(F)cnc2c1C(=O)Nc1cnccc1N1CCC(c2nnco2)CC1` [I-N-268, N-(4-(4-(1,3,4-oxadiazol-2-yl)piperidin-1-yl)pyridin-3-yl)-2-amino-6-fluoropyrazolo[1,5-a]pyrimidine-3-carboxamide]: the “Cisplatin Sensitization Assay” value is “+++ (Compounds with a Cisplatin sensitization value of <0.02 μM are marked with “+++.”)”.

Turning to `CN1CCC(C(=O)N2CCN(c3c(F)cncc3NC(=O)c3c(N)nn4cc(F)cnc34)CC2)CC1` [I-N-128, 2-amino-6-fluoro-N-(5-fluoro-4-(4-(1-methylpiperidine-4-carbonyl)piperazin-1-yl)pyridin-3-yl)pyrazolo[1,5-a]pyrimidine-3-carboxamide], the “Cisplatin Sensitization Assay” value is on record as “+++ (Compounds with a Cisplatin sensitization value of <0.02 μM are marked with “+++.”)”.

In the case of `CN1CCN(c2ccncc2NC(=O)c2c(N)nn3cc(Cl)cnc23)CC1` [I-N-59, 2-amino-6-chloro-N-(4-(4-methylpiperazin-1-yl)pyridin-3-yl)pyrazolo[1,5-a]pyrimidine-3-carboxamide], the “Cisplatin Sensitization Assay” value is “++ (Compounds with a Cisplatin sensitization value >0.02 μM but <0.2 μM are marked with “++.”)”.

For the molecule `Nc1nn2cc(F)cnc2c1C(=O)Nc1cncc(F)c1N1CCC(C(=O)N2CC(F)C2)CC1` [I-G-74, 2-amino-6-fluoro-N-(5-fluoro-4-(4-(3-fluoroazetidine-1-carbonyl)piperidin-1-yl)pyridin-3-yl)pyrazolo[1,5-a]pyrimidine-3-carboxamide], the “Cisplatin Sensitization Assay” value was “+++ (Compounds with a Cisplatin sensitization value of <0.02 μM are marked with “+++.”)”.

Turning to `CN1CC2(CCC1=O)CCN(c1ccncc1NC(=O)c1c(N)nn3cc(F)cnc13)CC2` [I-N-231, 2-amino-6-fluoro-N-(4-(2-methyl-3-oxo-2,9-diazaspiro[5.5]undecan-9-yl)pyridin-3-yl)pyrazolo[1,5-a]pyrimidine-3-carboxamide], the “Cisplatin Sensitization Assay” value is “+++ (Compounds with a Cisplatin sensitization value of <0.02 μM are marked with “+++.”)”.

Source of the values: patent publication US11117900B2 (Vertex Pharmaceuticals Incorporated, priority 2012, dated 2021).
